How the values were obtained:
Test in all cases: relative viability (nuclei count vs DMSO), 5 days (fraction); higher = more cells survive
Crenolanib + Bortezomib = compound: CC1(COc2ccc3c(c2)ncn3-c2ccc3cccc(N4CCC(N)CC4)c3n2)COC1 [Crenolanib] + CC(C)C[C@H](NC(=O)[C@H](Cc1ccccc1)NC(=O)c1cnccn1)B(O)O [Bortezomib] (partner 0.002 µM)
Summary of the method: (§1)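 Cells from lung cancer lines were seeded into 1536-well plates and, one day later, dosed by pin tool. Treatments were either a single drug or a fixed dose of an anchor drug with five library-drug doses (not always all listed) in √10 steps. After 5 days, nuclei were stained in a one-step fixation (final 0.05% Triton X-100, 1% formaldehyde, 1 ug/ml Hoechst) and counted on 4× images, and relative viability is the treated-to-vehicle nuclei ratio, as the median of duplicate plates.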

Crenolanib + Linsitinib = compound: CC1(COc2ccc3c(c2)ncn3-c2ccc3cccc(N4CCC(N)CC4)c3n2)COC1 [Crenolanib] + C[C@]1(O)C[C@@H](c2nc(-c3ccc4ccc(-c5ccccc5)nc4c3)c3c(N)nccn32)C1 [Linsitinib] (partner 1 µM)
Summary of the method: as §1

Tivantinib + Palbociclib = compound: O=C1NC(=O)[C@@H](c2cn3c4c(cccc24)CCC3)[C@@H]1c1c[nH]c2ccccc12 [Tivantinib] + CC(=O)c1c(C)c2cnc(Nc3ccc(N4CCNCC4)cn3)nc2n(C2CCCC2)c1=O [Palbociclib] (partner 0.5 µM)
Summary of the method: as §1

Tivantinib + Dasatinib = compound: O=C1NC(=O)[C@@H](c2cn3c4c(cccc24)CCC3)[C@@H]1c1c[nH]c2ccccc12 [Tivantinib] + Cc1nc(Nc2ncc(C(=O)Nc3c(C)cccc3Cl)s2)cc(N2CCN(CCO)CC2)n1 [Dasatinib] (partner 0.075 µM)
Summary of the method: as §1

201T
relative viability (Crenolanib + Bortezomib; first compound 0.01 µM): 1.06 | relative viability (Crenolanib + Bortezomib; first compound 0.03162 µM): 1.12 | relative viability (Crenolanib + Bortezomib; first compound 0.1 µM): 1.06 | relative viability (Crenolanib + Bortezomib; first compound 0.3162 µM): 1.04 | relative viability (Crenolanib + Bortezomib; first compound 1 µM): 1.07 | relative viability (Crenolanib + Linsitinib; first compound 0.01 µM): 1.05 | relative viability (Crenolanib + Linsitinib; first compound 0.03162 µM): 1.04 | relative viability (Crenolanib + Linsitinib; first compound 0.1 µM): 1.01 | relative viability (Crenolanib + Linsitinib; first compound 0.3162 µM): 1.04 | relative viability (Crenolanib + Linsitinib; first compound 1 µM): 1.11 | relative viability (Tivantinib + Palbociclib; first compound 0.01 µM): 0.368 | relative viability (Tivantinib + Palbociclib; first compound 0.03162 µM): 0.386 | relative viability (Tivantinib + Palbociclib; first compound 0.1 µM): 0.364 | relative viability (Tivantinib + Palbociclib; first compound 0.3162 µM): 0.348 | relative viability (Tivantinib + Dasatinib; first compound 0.01 µM): 0.562 | relative viability (Tivantinib + Dasatinib; first compound 0.03162 µM): 0.566 | relative viability (Tivantinib + Dasatinib; first compound 0.1 µM): 0.547 | relative viability (Tivantinib + Dasatinib; first compound 0.3162 µM): 0.554

A549
relative viability (Crenolanib + Linsitinib; first compound 0.01 µM): 0.674 | relative viability (Crenolanib + Linsitinib; first compound 0.03162 µM): 0.598 | relative viability (Crenolanib + Linsitinib; first compound 0.1 µM): 0.529 | relative viability (Crenolanib + Linsitinib; first compound 0.3162 µM): 0.69 | relative viability (Crenolanib + Linsitinib; first compound 1 µM): 0.533

A-427
relative viability (Crenolanib + Bortezomib; first compound 0.01 µM): 0.961 | relative viability (Crenolanib + Bortezomib; first compound 0.03162 µM): 1.12 | relative viability (Crenolanib + Bortezomib; first compound 0.1 µM): 0.987 | relative viability (Crenolanib + Bortezomib; first compound 0.3162 µM): 1.01 | relative viability (Crenolanib + Bortezomib; first compound 1 µM): 1.03 | relative viability (Crenolanib + Linsitinib; first compound 0.01 µM): 1.1 | relative viability (Crenolanib + Linsitinib; first compound 0.03162 µM): 1.06 | relative viability (Crenolanib + Linsitinib; first compound 0.1 µM): 1.08 | relative viability (Crenolanib + Linsitinib; first compound 0.3162 µM): 1.15 | relative viability (Crenolanib + Linsitinib; first compound 1 µM): 1.15 | relative viability (Tivantinib + Palbociclib; first compound 0.01 µM): 0.547 | relative viability (Tivantinib + Palbociclib; first compound 0.03162 µM): 0.551 | relative viability (Tivantinib + Palbociclib; first compound 0.1 µM): 0.484 | relative viability (Tivantinib + Palbociclib; first compound 0.3162 µM): 0.507 | relative viability (Tivantinib + Dasatinib; first compound 0.01 µM): 0.677 | relative viability (Tivantinib + Dasatinib; first compound 0.03162 µM): 0.731 | relative viability (Tivantinib + Dasatinib; first compound 0.1 µM): 0.712 | relative viability (Tivantinib + Dasatinib; first compound 0.3162 µM): 0.686

ABC-1
relative viability (Crenolanib + Bortezomib; first compound 0.01 µM): 0.289 | relative viability (Crenolanib + Bortezomib; first compound 0.03162 µM): 0.353 | relative viability (Crenolanib + Bortezomib; first compound 0.1 µM): 0.331 | relative viability (Crenolanib + Bortezomib; first compound 0.3162 µM): 0.308 | relative viability (Crenolanib + Bortezomib; first compound 1 µM): 0.253 | relative viability (Crenolanib + Linsitinib; first compound 0.01 µM): 0.79 | relative viability (Crenolanib + Linsitinib; first compound 0.03162 µM): 0.797 | relative viability (Crenolanib + Linsitinib; first compound 0.1 µM): 0.946 | relative viability (Crenolanib + Linsitinib; first compound 0.3162 µM): 1.19 | relative viability (Crenolanib + Linsitinib; first compound 1 µM): 1.04 | relative viability (Tivantinib + Palbociclib; first compound 0.01 µM): 0.689 | relative viability (Tivantinib + Palbociclib; first compound 0.03162 µM): 0.567 | relative viability (Tivantinib + Palbociclib; first compound 0.1 µM): 0.577 | relative viability (Tivantinib + Palbociclib; first compound 0.3162 µM): 0.46 | relative viability (Tivantinib + Dasatinib; first compound 0.01 µM): 0.629 | relative viability (Tivantinib + Dasatinib; first compound 0.03162 µM): 0.742 | relative viability (Tivantinib + Dasatinib; first compound 0.1 µM): 0.566 | relative viability (Tivantinib + Dasatinib; first compound 0.3162 µM): 0.516

BEN
relative viability (Crenolanib + Bortezomib; first compound 0.01 µM): 0.821 | relative viability (Crenolanib + Bortezomib; first compound 0.03162 µM): 0.644 | relative viability (Crenolanib + Bortezomib; first compound 0.1 µM): 0.733 | relative viability (Crenolanib + Bortezomib; first compound 0.3162 µM): 0.881 | relative viability (Crenolanib + Bortezomib; first compound 1 µM): 0.761 | relative viability (Crenolanib + Linsitinib; first compound 0.01 µM): 1.03 | relative viability (Crenolanib + Linsitinib; first compound 0.03162 µM): 0.895 | relative viability (Crenolanib + Linsitinib; first compound 0.1 µM): 0.83 | relative viability (Crenolanib + Linsitinib; first compound 0.3162 µM): 0.848 | relative viability (Crenolanib + Linsitinib; first compound 1 µM): 0.911 | relative viability (Tivantinib + Palbociclib; first compound 0.01 µM): 0.446 | relative viability (Tivantinib + Palbociclib; first compound 0.03162 µM): 0.474 | relative viability (Tivantinib + Palbociclib; first compound 0.1 µM): 0.508 | relative viability (Tivantinib + Palbociclib; first compound 0.3162 µM): 0.447 | relative viability (Tivantinib + Dasatinib; first compound 0.01 µM): 0.293 | relative viability (Tivantinib + Dasatinib; first compound 0.03162 µM): 0.308 | relative viability (Tivantinib + Dasatinib; first compound 0.1 µM): 0.382 | relative viability (Tivantinib + Dasatinib; first compound 0.3162 µM): 0.359

CAL-12T
relative viability (Crenolanib + Bortezomib; first compound 0.01 µM): 1.05 | relative viability (Crenolanib + Bortezomib; first compound 0.03162 µM): 0.667 | relative viability (Crenolanib + Bortezomib; first compound 0.1 µM): 1.23 | relative viability (Crenolanib + Bortezomib; first compound 0.3162 µM): 1.02 | relative viability (Crenolanib + Bortezomib; first compound 1 µM): 0.789 | relative viability (Crenolanib + Linsitinib; first compound 0.01 µM): 0.967 | relative viability (Crenolanib + Linsitinib; first compound 0.03162 µM): 0.7 | relative viability (Crenolanib + Linsitinib; first compound 0.1 µM): 0.768 | relative viability (Crenolanib + Linsitinib; first compound 0.3162 µM): 0.869 | relative viability (Crenolanib + Linsitinib; first compound 1 µM): 0.846 | relative viability (Tivantinib + Palbociclib; first compound 0.01 µM): 0.409 | relative viability (Tivantinib + Palbociclib; first compound 0.03162 µM): 0.345 | relative viability (Tivantinib + Palbociclib; first compound 0.1 µM): 0.347 | relative viability (Tivantinib + Palbociclib; first compound 0.3162 µM): 0.185 | relative viability (Tivantinib + Dasatinib; first compound 0.01 µM): 0.479 | relative viability (Tivantinib + Dasatinib; first compound 0.03162 µM): 0.499 | relative viability (Tivantinib + Dasatinib; first compound 0.1 µM): 0.403 | relative viability (Tivantinib + Dasatinib; first compound 0.3162 µM): 0.238

COR-L23
relative viability (Crenolanib + Bortezomib; first compound 0.01 µM): 0.983 | relative viability (Crenolanib + Bortezomib; first compound 0.03162 µM): 1.16 | relative viability (Crenolanib + Bortezomib; first compound 0.1 µM): 0.921 | relative viability (Crenolanib + Bortezomib; first compound 0.3162 µM): 1.13 | relative viability (Crenolanib + Bortezomib; first compound 1 µM): 1.03 | relative viability (Crenolanib + Linsitinib; first compound 0.01 µM): 1.06 | relative viability (Crenolanib + Linsitinib; first compound 0.03162 µM): 1.02 | relative viability (Crenolanib + Linsitinib; first compound 0.1 µM): 0.884 | relative viability (Crenolanib + Linsitinib; first compound 0.3162 µM): 1.15 | relative viability (Crenolanib + Linsitinib; first compound 1 µM): 0.88 | relative viability (Tivantinib + Palbociclib; first compound 0.01 µM): 0.343 | relative viability (Tivantinib + Palbociclib; first compound 0.03162 µM): 0.304 | relative viability (Tivantinib + Palbociclib; first compound 0.1 µM): 0.268 | relative viability (Tivantinib + Palbociclib; first compound 0.3162 µM): 0.325 | relative viability (Tivantinib + Dasatinib; first compound 0.01 µM): 0.498 | relative viability (Tivantinib + Dasatinib; first compound 0.03162 µM): 0.542 | relative viability (Tivantinib + Dasatinib; first compound 0.1 µM): 0.48 | relative viability (Tivantinib + Dasatinib; first compound 0.3162 µM): 0.5

COR-L 105
relative viability (Crenolanib + Bortezomib; first compound 0.01 µM): 0.95 | relative viability (Crenolanib + Bortezomib; first compound 0.03162 µM): 0.863 | relative viability (Crenolanib + Bortezomib; first compound 0.1 µM): 0.646 | relative viability (Crenolanib + Bortezomib; first compound 0.3162 µM): 0.825 | relative viability (Crenolanib + Bortezomib; first compound 1 µM): 0.676 | relative viability (Crenolanib + Linsitinib; first compound 0.01 µM): 0.873 | relative viability (Crenolanib + Linsitinib; first compound 0.03162 µM): 1.09 | relative viability (Crenolanib + Linsitinib; first compound 0.1 µM): 0.748 | relative viability (Crenolanib + Linsitinib; first compound 0.3162 µM): 1.22 | relative viability (Crenolanib + Linsitinib; first compound 1 µM): 0.92 | relative viability (Tivantinib + Palbociclib; first compound 0.01 µM): 0.441 | relative viability (Tivantinib + Palbociclib; first compound 0.03162 µM): 0.385 | relative viability (Tivantinib + Palbociclib; first compound 0.1 µM): 0.436 | relative viability (Tivantinib + Palbociclib; first compound 0.3162 µM): 0.375 | relative viability (Tivantinib + Dasatinib; first compound 0.01 µM): 0.42 | relative viability (Tivantinib + Dasatinib; first compound 0.03162 µM): 0.287 | relative viability (Tivantinib + Dasatinib; first compound 0.1 µM): 0.334 | relative viability (Tivantinib + Dasatinib; first compound 0.3162 µM): 0.216

Calu-6
relative viability (Crenolanib + Bortezomib; first compound 0.01 µM): 1.06 | relative viability (Crenolanib + Bortezomib; first compound 0.03162 µM): 0.97 | relative viability (Crenolanib + Bortezomib; first compound 0.1 µM): 1.03 | relative viability (Crenolanib + Bortezomib; first compound 0.3162 µM): 1.1 | relative viability (Crenolanib + Bortezomib; first compound 1 µM): 1.02 | relative viability (Crenolanib + Linsitinib; first compound 0.01 µM): 1.01 | relative viability (Crenolanib + Linsitinib; first compound 0.03162 µM): 0.813 | relative viability (Crenolanib + Linsitinib; first compound 0.1 µM): 0.873 | relative viability (Crenolanib + Linsitinib; first compound 0.3162 µM): 1.03 | relative viability (Crenolanib + Linsitinib; first compound 1 µM): 0.936

ChaGo-K-1
relative viability (Crenolanib + Bortezomib; first compound 0.01 µM): 1.07 | relative viability (Crenolanib + Bortezomib; first compound 0.03162 µM): 0.769 | relative viability (Crenolanib + Bortezomib; first compound 0.1 µM): 0.941 | relative viability (Crenolanib + Bortezomib; first compound 0.3162 µM): 0.969 | relative viability (Crenolanib + Bortezomib; first compound 1 µM): 0.971 | relative viability (Tivantinib + Palbociclib; first compound 0.01 µM): 0.95 | relative viability (Tivantinib + Palbociclib; first compound 0.03162 µM): 0.946 | relative viability (Tivantinib + Palbociclib; first compound 0.1 µM): 0.93 | relative viability (Tivantinib + Palbociclib; first compound 0.3162 µM): 0.925 | relative viability (Tivantinib + Dasatinib; first compound 0.01 µM): 0.584 | relative viability (Tivantinib + Dasatinib; first compound 0.03162 µM): 0.604 | relative viability (Tivantinib + Dasatinib; first compound 0.1 µM): 0.612 | relative viability (Tivantinib + Dasatinib; first compound 0.3162 µM): 0.564

From the supplement of paper PMC10307832
